Data reported in patent EP4603105A1, “PHARMACEUTICAL COMPOSITION CONTAINING CYCLIC COMPOUND HAVING SELECTIVE KRAS INHIBITORY EFFECT AGAINST HRAS AND NRAS” (CHUGAI SEIYAKU KABUSHIKI KAISHA, priority 2022, dated 2024).
*1 amine or outer side, *2 acyl side, *3 side chain or, on linkers, in order; H or OH if unused. Where a SMILES comes first, the peptide text is derived from it. Bridges are numbered along the chain shown (N, C = ends). [ ]: non-standard residue; d: D form. The star is where a group is joined. hPhe(3,5-F2-4-CF3) = N[C@@H](CCc1cc(F)c(C(F)(F)F)c(F)c1)C(=O)O; hPhe(3-Cl-4-CF3) = N[C@@H](CCc1ccc(C(F)(F)F)c(Cl)c1)C(=O)O; NPrPhe(4-CF3) = CCCN[C@@H](Cc1ccc(C(F)(F)F)cc1)C(=O)O; X49 = Cc1ccc(C[C@@H](C(=O)[*:2])N(CC2CC2)[*:1])cc1; NMeGly(cPent) = CN[C@H](C(=O)O)C1CCCC1; Gly(cBu) = N[C@H](C(=O)O)C1CCC1; NMeD = CN[C@@H](CC(=O)O)C(=O)O; NMeL = CN[C@@H](CC(C)C)C(=O)O; αMeV = CC(C)[C@](C)(N)C(=O)O; Morpholide = C1CN(*)CCO1; NMeA = CN[C@@H](C)C(=O)O; Ac5c = NC1(C(=O)O)CCCC1; Aze = O=C(O)[C@@H]1CCN1; Sar = CNCC(=O)O

Legend:
[1] = target: GDP-bound NRAS wild-type protein (Homo sapiens, UniProt P01111); test: Binding to NRAS by surface plasmon resonance (SPR), KD and KD ratio to KRAS
GDP-bound NRAS wild-type protein, sequence (P01111 whole entry): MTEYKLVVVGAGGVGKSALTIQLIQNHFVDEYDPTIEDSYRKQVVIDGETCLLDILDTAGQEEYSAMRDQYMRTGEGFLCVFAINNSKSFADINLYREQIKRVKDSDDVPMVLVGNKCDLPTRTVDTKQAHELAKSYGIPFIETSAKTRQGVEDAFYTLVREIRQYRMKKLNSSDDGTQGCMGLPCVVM
Method in brief: (§1)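 SPR, 30°C: Avi-biotin RAS·GDP captured via Biotin CAPture (~100–300 RU); running buffer HBS pH 7.4, 1 mM DTT, 10 mM MgCl2, 0.01% Tween 20, 10 µM GDP, 4% DMSO. Single-cycle kinetics, 100 µL/min, 75 s injections; 1:1 model → KD.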

[2] = test system: human lung cancer strain NCI-H441; type: cell-based
Method in brief: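 Proliferation was scored by […] measured after the reagent was added to cultures kept at 37°C in 5% carbon dioxide.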

HRAS wild-type protein = HRAS wild-type protein (Homo sapiens, UniProt P01112); test: Binding to HRAS by surface plasmon resonance (SPR), KD and KD ratio to KRAS
HRAS wild-type protein, sequence (P01112 whole entry): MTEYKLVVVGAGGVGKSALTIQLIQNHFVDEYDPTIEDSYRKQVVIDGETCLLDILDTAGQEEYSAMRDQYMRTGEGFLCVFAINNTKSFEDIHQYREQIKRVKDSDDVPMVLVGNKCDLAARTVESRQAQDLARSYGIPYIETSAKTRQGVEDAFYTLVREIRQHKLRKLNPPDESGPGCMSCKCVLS
Method in brief: as §1

[3] = ratio of the KD value with respect to GDP-bound NRAS wild-type protein to the KD value with respect to KRAS
[4] = ratio of the KD value with respect to HRAS wild-type protein to the KD value with respect to KRAS
[5] = ratio of KD for GDP-bound NRAS wild-type protein to KD for KRAS
[6] = ratio of KD for HRAS wild-type protein to KD for KRAS

Row | Structure (SMILES) | NRAS /KRAS [1, 3] | IC50 [2] [nM] | HRAS /KRAS (HRAS wild-type protein; [4]) | NRAS /KRAS [1, 5] | HRAS /KRAS (HRAS wild-type protein; [6]) | NRAS /KRAS ([1]; ratio of KD value for GDP-bound NRAS wild-type protein to KD value for KRAS (SPR)) | HRAS /KRAS (HRAS wild-type protein; ratio of KD value for HRAS wild-type protein to KD value for KRAS (SPR))
1 | CCO[C@@H]1C[C@H]2C(=O)NC3(CC(C)(C)C3)C(=O)N(C)[C@@H](C3CCCC3)C(=O)N(C)[C@H](C(=O)N(C)CC)CC(=O)N(C)[C@@H](C3CC3)C(=O)N[C@@H]([C@@H](C)CC)C(=O)N(C)CC(=O)N(C)[C@H]3C/C=C\CCN(C3=O)[C@@H](Cc3ccc(C(F)(F)F)cc3)C(=O)N(C)CC(=O)N[C@@H](CCc3cc(F)c(C(F)(F)F)c(F)c3)C(=O)N2C1 [PP2036] | A (a compound having 10 or more and less than 20 is denoted as A) | 9.1 | A (a compound having 10 or more and less than 20 is denoted as A) |  |  |  | 
2 | CCCN1C(=O)CN(C)C(=O)[C@@H]2CCN2C(=O)[C@H](C2CCC2)NC(=O)[C@H](CC(C)C)N(C)C(=O)C[C@@H](C(=O)N2CCOCC2)N(C)C(=O)[C@H](C2CCCC2)N(C)C(=O)C2(CCCC2)NC(=O)[C@@H]2CCCN2C(=O)[C@H](CCc2ccc(C(F)(F)F)c(Cl)c2)NC(=O)CN(C)C(=O)[C@@H]1Cc1ccc(C(F)(F)F)cc1 [PP0305] ([NMeL][Gly(cBu)][Aze][Sar][NPrPhe(4-CF3)][Sar][hPhe(3-Cl-4-CF3)]P[Ac5c][NMeGly(cPent)][NMeD]-Morpholide; lactam N-11) |  | 49.6 |  | B (a compound having 3 or more and less than 10 is denoted as B) | C (A compound having a KD ratio of 0.1 or more and less than 3 is denoted as C) |  | 
3 | CCCN(C)C(=O)[C@@H]1CC(=O)N(C)[C@@H](C2CCC2)C(=O)N[C@@H]([C@@H](C)CC)C(=O)N(C)CC(=O)N(C)[C@H]2C/C=C\CCN(C2=O)[C@@H](Cc2ccc(C(F)(F)F)cc2)C(=O)N(C)CC(=O)N[C@@H](CCc2ccc(C(F)(F)F)c(OC)c2)C(=O)N2C[C@@H](C)C[C@H]2C(=O)NC2(CCC2)C(=O)N(C)[C@@H](C2CCCC2)C(=O)N1C [PP2072] | A (a compound having 10 or more and less than 20 is denoted as A) | 8.5 | A (a compound having 10 or more and less than 20 is denoted as A) |  |  |  | 
4 | CC[C@H](C)[C@@H]1NC(=O)[C@H](C2CC2)N(C)C(=O)C[C@@H](C(=O)N(C)CC)N(C)C(=O)[C@H](C2CCCC2)N(C)C(=O)C2(CC(C)(C)C2)NC(=O)[C@@H]2C[C@H](C)CN2C(=O)[C@H](CCc2ccc(C(F)(F)F)c(OC)c2)NC(=O)CN(C)C(=O)[C@H](Cc2ccc(C(F)(F)F)cc2)N2CC/C=C\C[C@@H](C2=O)N(C)C(=O)CN(C)C1=O [PP2007] | AA (a compound having 20 or more is denoted as AA) | 14.9 | B (a compound having 3 or more and less than 10 is denoted as B) |  |  |  | 
5 | CC[C@H](C)[C@@H]1NC(=O)[C@H](CC(C)C)N(C)C(=O)C[C@@H](C(=O)N2CCOCC2)N(CC)C(=O)[C@H](C2CCCC2)N(C)C(=O)C2(CCC2)NC(=O)[C@@H]2[C@H](O)CCN2C(=O)[C@H](CCc2cc(F)c(C(F)(F)F)c(F)c2)NC(=O)CN(C)C(=O)[C@H](Cc2ccc(C(F)(F)F)cc2)N2CCCCC[C@@H](C2=O)N(C)C(=O)CN(C)C1=O [PP0955] |  | 6480 |  | A (a compound having 10 or more and less than 20 is denoted as A) | A (a compound having 10 or more and less than 20 is denoted as A) |  | 
6 | CCCN(C)C(=O)[C@@H]1CC(=O)N(C)[C@@H](C2CC2)C(=O)N[C@@H]([C@@H](C)CC)C(=O)N(C)CC(=O)N(C)[C@H]2C/C=C\CCN(C2=O)[C@@H](Cc2ccc(C(F)(F)F)cc2)C(=O)N(C)CC(=O)N[C@@H](CCc2cc(F)c(C(F)(F)F)c(F)c2)C(=O)N2C[C@H](OCC)C[C@H]2C(=O)NC2(CCC2)C(=O)N(C)[C@@H](C2CCCC2)C(=O)N1C [PP1994] | AA (a compound having 20 or more is denoted as AA) | 22.4 | A (a compound having 10 or more and less than 20 is denoted as A) |  |  |  | 
7 | CC[C@H](C)[C@@H]1NC(=O)[C@H](CC(C)C)N(C)C(=O)C[C@@H](C(=O)N2CCOCC2)N(C)C(=O)[C@H](C2CCCC2)N(C)C(=O)C2(CCC2)NC(=O)[C@@H]2CC(F)(F)CN2C(=O)[C@H](CCc2cc(F)c(C(F)(F)F)c(F)c2)NC(=O)CN(C)C(=O)[C@H](Cc2ccc(C(F)(F)F)cc2)N2CCCC[C@@H](C2=O)N(C)C(=O)CN(C)C1=O [PP0575] | B (a compound having 3 or more and less than 10 is denoted as B) | 3.2 | B (a compound having 3 or more and less than 10 is denoted as B) |  |  |  | 
8 | CC[C@H](C)[C@@H]1NC(=O)[C@H](C)N(C)C(=O)C[C@@H](C(=O)N2CCOCC2)N(C)C(=O)[C@H](C2CCCC2)N(C)C(=O)C2(CCC2)NC(=O)[C@@H]2CC(F)(F)CN2C(=O)[C@H](CCc2cc(F)c(C(F)(F)F)c(F)c2)NC(=O)CN(C)C(=O)[C@H](Cc2ccc(C(F)(F)F)cc2)N2CCCCC[C@@H](C2=O)N(C)C(=O)CN(C)C1=O [PP0471] | B (a compound having 3 or more and less than 10 is denoted as B) | 37.7 | B (a compound having 3 or more and less than 10 is denoted as B) |  |  |  | 
9 | CCCN1C(=O)[C@@H]2CCN2C(=O)CN(C)C(=O)[C@H]([C@@H](C)CC)NC(=O)[C@H](CC(C)C)N(C)C(=O)C[C@@H](C(=O)N2CCOCC2)N(C)C(=O)[C@H](C2CCCC2)N(C)C(=O)[C@](C)(C(C)C)NC(=O)[C@@H]2CCCN2C(=O)[C@H](CCc2cc(F)c(C(F)(F)F)c(F)c2)NC(=O)CN(C)C(=O)[C@@H]1Cc1ccc(C(F)(F)F)cc1 [PP0792] ([NMeL]I[Sar][Aze][NPrPhe(4-CF3)][Sar][hPhe(3,5-F2-4-CF3)]P[αMeV][NMeGly(cPent)][NMeD]-Morpholide; lactam N-11) |  | 112 |  | C (A compound having a KD ratio of 0.1 or more and less than 3 is denoted as C) | B (a compound having 3 or more and less than 10 is denoted as B) |  | 
10 | CC[C@H](C)[C@@H]1NC(=O)[C@H](CC(F)(F)F)N(C)C(=O)C[C@@H](C(=O)N(C)C)N(C)C(=O)[C@H](C2CCCC2)N(C)C(=O)C2(CC(C)(C)C2)NC(=O)[C@@H]2C[C@@H](F)CN2C(=O)[C@H](CCc2cc(F)c(C(F)(F)F)c(F)c2)NC(=O)CN(C)C(=O)[C@H](Cc2ccc(C(F)(F)F)cc2)N2CC/C=C\C[C@@H](C2=O)N(C)C(=O)CN(C)C1=O [PP1688] |  | 1.5 |  |  |  | A (a compound having 10 or more and less than 20 is denoted as A) | A (a compound having 10 or more and less than 20 is denoted as A)
11 | CC[C@H](C)[C@@H]1NC(=O)[C@H](CC(C)C)N(C)C(=O)C[C@@H](C(=O)N2CCOCC2)N(C)C(=O)[C@H](C2CCCC2)N(C)C(=O)C2(CCCC2)NC(=O)[C@@H]2CCCN2C(=O)[C@H](CCc2ccc(C(F)(F)F)c(Cl)c2)NC(=O)CN(C)C(=O)[C@H](Cc2ccc(C)cc2)N2CCCC[C@@H](C2=O)N(C)C(=O)CN(C)C1=O [PP0316] |  | 2.8 |  | C (A compound having a KD ratio of 0.1 or more and less than 3 is denoted as C) | B (a compound having 3 or more and less than 10 is denoted as B) |  | 
12 | CCCN(C)C(=O)[C@@H]1CC(=O)N(C)[C@@H](CC(F)F)C(=O)N[C@@H]([C@@H](C)CC)C(=O)N(C)CC(=O)N(C)[C@H]2C/C=C\CCN(C2=O)[C@@H](Cc2ccc(C(F)(F)F)cc2)C(=O)N(C)CC(=O)N[C@@H](CCc2ccc(C(F)(F)F)c(OC)c2)C(=O)N2C[C@H](OCC)C[C@H]2C(=O)NC2(CC(C)(C)C2)C(=O)N(C)[C@@H](C2CCCC2)C(=O)N1C [PP2010] | A (a compound having 10 or more and less than 20 is denoted as A) | 6.6 | B (a compound having 3 or more and less than 10 is denoted as B) |  |  |  | 
13 | CCC[C@H]1C(=O)N[C@@H]([C@@H](C)CC)C(=O)N(C)CC(=O)N(C)[C@H]2C/C=C\CCN(C2=O)[C@@H](Cc2ccc(C(F)(F)F)cc2)C(=O)N(C)CC(=O)N[C@@H](CCc2ccc(C(F)(F)F)c(OC)c2)C(=O)N2CCCC[C@H]2C(=O)NC2(CC(C)(C)C2)C(=O)N(C)[C@@H](C(CC)CC)C(=O)N(C)[C@H](C(=O)N(C)C)CC(=O)N1C [PP2934] |  | 108 |  | AA (a compound having 20 or more is denoted as AA) | A (a compound having 10 or more and less than 20 is denoted as A) |  | 
14 | CC[C@H](C)[C@@H]1NC(=O)[C@H](C2CCC2)N(C)C(=O)C[C@@H](C(=O)N(C)CC)N(C)C(=O)[C@H](C2CCCC2)N(C)C(=O)C2(CCC2)NC(=O)[C@@H]2C[C@H](C)CN2C(=O)[C@H](CCc2ccc(C(F)(F)F)c(OC)c2)NC(=O)CN(C)C(=O)[C@H](Cc2ccc(C(F)(F)F)cc2)N2CC/C=C\C[C@@H](C2=O)N(C)C(=O)CN(C)C1=O [PP2071] | A (a compound having 10 or more and less than 20 is denoted as A) | 6.2 | A (a compound having 10 or more and less than 20 is denoted as A) |  |  |  | 
15 | CC[C@H](C)[C@@H]1NC(=O)[C@H](CC(C)C)N(C)C(=O)C[C@@H](C(=O)N2CCOCC2)N(C)C(=O)[C@H](C2CCCC2)N(C)C(=O)C2(CCCC2)NC(=O)[C@@H]2CCCN2C(=O)[C@H](CCc2ccc(C(F)(F)F)c(Cl)c2)NC(=O)CN(C)C(=O)[C@H](Cc2ccc(C)cc2)N(CC2CC2)C(=O)[C@@H]2CCN2C(=O)[C@H](C)N(C)C1=O [PP0057] ([NMeL]I[NMeA][Aze][X49][Sar][hPhe(3-Cl-4-CF3)]P[Ac5c][NMeGly(cPent)][NMeD]-Morpholide; lactam N-11) |  | 6.2 |  | C (A compound having a KD ratio of 0.1 or more and less than 3 is denoted as C) | B (a compound having 3 or more and less than 10 is denoted as B) |  | 
